Results on one substance are retold here after publication PMC12856317, “A reversible feedback mechanism regulating mitochondrial heme synthesis” (The Journal of Biological Chemistry, 2025).

Experiment in all cases: Isothermal titration calorimetry, hemin-protein interaction
Holding throughout (type): binding
Holding throughout (conditions): ITC, 25 °C
In general terms: ITC needs no label: the signal is the heat of the interaction.

The target of assay [1] is T1, WT human ALAS2 (residues 54–587) (Homo sapiens, UniProt P22557).
T1 construct: His6-SUMO (N, cleaved yes); made in house; host or cells: Escherichia coli BL21-Codon Plus (DE3)-RIL
T1 sequence (P22557 54-587): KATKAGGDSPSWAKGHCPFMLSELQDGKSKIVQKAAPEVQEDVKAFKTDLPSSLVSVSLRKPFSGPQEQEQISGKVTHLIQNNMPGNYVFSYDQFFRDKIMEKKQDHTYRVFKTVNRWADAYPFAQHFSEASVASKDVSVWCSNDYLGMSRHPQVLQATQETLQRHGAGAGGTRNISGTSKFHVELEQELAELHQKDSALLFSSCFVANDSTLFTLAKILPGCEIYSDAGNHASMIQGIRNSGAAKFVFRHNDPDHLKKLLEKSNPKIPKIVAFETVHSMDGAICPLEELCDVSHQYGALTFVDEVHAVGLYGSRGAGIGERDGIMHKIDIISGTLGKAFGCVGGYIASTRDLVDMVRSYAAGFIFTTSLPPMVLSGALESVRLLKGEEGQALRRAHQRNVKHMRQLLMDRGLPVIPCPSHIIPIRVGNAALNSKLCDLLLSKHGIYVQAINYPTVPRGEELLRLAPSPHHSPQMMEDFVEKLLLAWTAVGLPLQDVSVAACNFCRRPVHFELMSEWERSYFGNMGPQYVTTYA
As to the method: (§1) Binding curves of the hemin-protein interaction were determined using Nano-ITC instrument (TA instruments) at 25 °C. Hemin was dissolved in 1 M NaOH and autoclaved to prepare a stock solution of 746 μM, ε385nm = 58,440 M^−1 cm^−1. The stock solution was diluted to 1.5 μM in titration buffer containing 25 mM Hepes, pH 7, 150 mM KCl, and 0.5 mM TCEP. Protein samples were dialyzed into the titration buffer and diluted to a final concentration of 40 μM. Fixed volumes of protein were injected at 200-s intervals into the cell containing hemin. An A + B hetero-association model was used to determine the thermodynamic parameters for each variant. Data were integrated and analyzed using NITPIC and SEDPHAT and visualized using GUSSI ([71], [72], [73]).

Assay [2] deals with T2, human ALAS2 ΔC (residues 54–547) (Homo sapiens, UniProt P22557).
T2 construct: a truncation without the C-terminal CXXC motif (ΔC, residues 54–547); His6-SUMO (N, cleaved yes); made in house; host or cells: Escherichia coli BL21-Codon Plus (DE3)-RIL
T2 sequence (P22557 54-547): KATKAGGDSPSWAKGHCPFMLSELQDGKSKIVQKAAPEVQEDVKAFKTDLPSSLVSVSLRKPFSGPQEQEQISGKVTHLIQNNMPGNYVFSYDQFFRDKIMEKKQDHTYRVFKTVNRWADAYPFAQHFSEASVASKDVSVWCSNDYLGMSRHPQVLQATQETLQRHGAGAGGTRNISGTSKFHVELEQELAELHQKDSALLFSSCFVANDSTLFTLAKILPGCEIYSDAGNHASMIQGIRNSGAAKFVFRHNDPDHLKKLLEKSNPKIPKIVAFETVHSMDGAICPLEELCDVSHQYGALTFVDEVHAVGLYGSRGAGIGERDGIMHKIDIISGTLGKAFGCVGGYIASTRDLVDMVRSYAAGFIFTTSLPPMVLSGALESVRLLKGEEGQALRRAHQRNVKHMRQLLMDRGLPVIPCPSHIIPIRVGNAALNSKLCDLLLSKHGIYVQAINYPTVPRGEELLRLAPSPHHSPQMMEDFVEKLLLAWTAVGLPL
As to the method: as §1

For assay [3], the target named is T3, human ALAS2 ΔN (residues 75–587) (Homo sapiens, UniProt P22557).
T3 construct: a truncation without HRM3 (ΔN, residues 75–587); His6-SUMO (N, cleaved yes); made in house; host or cells: Escherichia coli BL21-Codon Plus (DE3)-RIL
T3 sequence (P22557 75-587): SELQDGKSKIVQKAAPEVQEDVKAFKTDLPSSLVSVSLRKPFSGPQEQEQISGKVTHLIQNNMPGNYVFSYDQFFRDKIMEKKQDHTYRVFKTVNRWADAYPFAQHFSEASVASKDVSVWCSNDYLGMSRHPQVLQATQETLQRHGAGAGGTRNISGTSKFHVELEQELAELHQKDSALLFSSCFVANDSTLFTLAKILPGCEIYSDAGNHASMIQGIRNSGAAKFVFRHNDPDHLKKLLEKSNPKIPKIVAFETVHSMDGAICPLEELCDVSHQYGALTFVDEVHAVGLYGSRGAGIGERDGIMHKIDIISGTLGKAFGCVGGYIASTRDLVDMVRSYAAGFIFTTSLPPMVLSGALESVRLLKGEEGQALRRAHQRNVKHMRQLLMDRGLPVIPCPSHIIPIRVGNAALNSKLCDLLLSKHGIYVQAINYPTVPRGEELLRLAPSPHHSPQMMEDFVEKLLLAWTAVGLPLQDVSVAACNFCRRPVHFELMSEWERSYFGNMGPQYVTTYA
As to the method:
as §1

The mark [4] stands for this setting: 95% confidence interval in brackets.

pKd: −log10 of the molar value.

As usually defined, the pKd is the negative decadic logarithm of the Kd, by convention in mol/L. The low end stands for a large Kd, the high end for a small Kd. On to ferric chloride heme [hemin], for which the figures for the ΔG in assay [1], in assay [2] and in assay [3] were -9.05 kcal/mol, -8.94 kcal/mol and -8.50 kcal/mol, respectively. Further, the ΔS in assay [1] is recorded as −1.25 kcal/mol K; in assay [2], −1.80 kcal/mol K; in assay [3] it was −3.35 kcal/mol K. Besides, the pKd in assay [1] (setting [4]) is 6.63; in assay [1] (95% confidence interval in brackets, listed as heme), about 6.64; in assay [2] (setting [4]) it was 6.55; in assay [3] (setting [4]) it was 6.23. Further, the ΔH is −382 [−440, −342] kcal/mol in assay [1] (setting [4]); −544 [−604, −499] kcal/mol in assay [2] (setting [4]); −1006 [−1432, −810] kcal/mol in assay [3] (setting [4]).
